# According to patent US20240016781A1, “TREATMENT OF KRAS MUTANT CANCERS” (MEI Pharma, Inc., priority 2020, published 2024):
# Like-named read-outs stand apart in the source and are kept apart here.
# Columns and labels:
# Assay in all cases: 72-hour CellTiter-Glo 2.0 growth inhibition screen (single agent, 9x9 combination dose matrix);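 for Best CI Level: inhibition effect level at which the best CI was calculated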
# Type in all cases: cell-based
# [1] = test system: HPAF-II;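 for Best CI Level: inhibition effect level at which the best CI was calculated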
# [2] = test system: KYSE-410; details: for EC50: KYSE-410, 72 h;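 for Best CI Level: inhibition effect level at which the best CI was calculated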
# [3] = test system: LS-513; details: for EC50: LS-513, 72 h;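 for Best CI Level: inhibition effect level at which the best CI was calculated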
# [4] = test system: SW48 KRAS (G12D/+); details: for EC50: SW48, 72 h, read-out: EC50;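 for Best CI Level: inhibition effect level at which the best CI was calculated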
# [5] = test system: TOV-21G;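 for Best CI Level: inhibition effect level at which the best CI was calculated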
# [6] = HPAF-II (KRAS G12D), enhancer + MEI-522 (Voruciclib), 72 h;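 for Best CI Level: inhibition effect level at which the best CI was calculated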
# [7] = enhancer combined with MEI-522 (Voruciclib), HPAF-II (Pancreas), 72 hours, inhibition data
# [8] = Homo sapiens, KYSE-410, Esophageal, Additional Single Agent Responses (inhibition, % I), 72 h
# [9] = Homo sapiens, KYSE-410, Esophageal, growth inhibition (GI) curve, single agent, 72 h
# [10] = KYSE-410 (KRAS G12C), enhancer + MEI-522 (Voruciclib), 72 h;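 for Best CI Level: inhibition effect level at which the best CI was calculated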
# [11] = enhancer combined with MEI-522 (Voruciclib), KYSE-410 (Esophageal), 72 hours, inhibition data
# [12] = Homo sapiens, LS-513, Colorectal, Additional Single Agent Responses (inhibition, % I), 72 h
# [13] = Homo sapiens, LS-513, Colorectal, growth inhibition (GI) curve, single agent, 72 h
# [14] = LS-513 (KRAS G12D), enhancer + MEI-522 (Voruciclib), 72 h;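 for Best CI Level: inhibition effect level at which the best CI was calculated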
# [15] = enhancer combined with MEI-522 (Voruciclib), LS-513 (Colorectal), 72 hours, inhibition data
# [16] = Homo sapiens, SW48 KRAS (G12D/+), Colorectal, Additional Single Agent Responses (inhibition, % I), 72 h
# [17] = Homo sapiens, SW48 KRAS (G12D/+), Colorectal, growth inhibition (GI) curve, single agent, 72 h
# [18] = SW48 KRAS (G12D/+), enhancer + MEI-522 (Voruciclib), 72 h
# [19] = enhancer combined with MEI-522 (Voruciclib), SW48 KRAS (G12D/+) (Colorectal), 72 hours, inhibition data
# [20] = TOV-21G (KRAS G13C), enhancer + MEI-522 (Voruciclib), 72 h;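 for Best CI Level: inhibition effect level at which the best CI was calculated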
# [21] = enhancer combined with MEI-522 (Voruciclib), TOV-21G (Ovary), 72 hours, inhibition data
structure (smiles),measurement,setting,value
CC[C@@H]1C(=O)N(C)c2cnc(Nc3ccc(C(=O)N[C@H]4CC[C@H](N5CCN(CC6CC6)CC5)CC4)cc3OC)nc2N1C(C)C [Volasertib],Best CI,[1]; [6],0.66
same,Bliss Volume,[1]; [6],−0.85
same,HSA volume,[1]; [6],0.04
same,Loewe Volume,[1]; [6],−0.80
same,Synergy Score,[1]; [6],2.64
same,Response Area,"[1]; HPAF-II, Pancreas, Additional Single Agent Responses (inhibition, % I), 72 h",3.45
same,Response Area,"[1]; HPAF-II, Pancreas, growth inhibition (GI), AUC, single agent, 72 h",4.65
same,EC50,"[1]; Homo sapiens, HPAF-II, 72 h, Pancreas, Additional Single Agent Responses (inhibition, % I)",3.9 nM
same,EC50,"[1]; Homo sapiens, HPAF-II, 72 h, Pancreas, growth inhibition (GI) curve, single agent",3.9 nM
same,IC50,"[1]; Homo sapiens, HPAF-II, Pancreas, Additional Single Agent Responses (inhibition, % I), 72 h",6.2 nM
same,Emax,"[1]; Homo sapiens, HPAF-II, Pancreas, Additional Single Agent Responses, 72 h, read-out: Max Response (% I)",71%
same,GI50,"[1]; Homo sapiens, HPAF-II, Pancreas, growth inhibition (GI) curve, single agent, 72 h",4.4 nM
same,Emax,"[1]; Homo sapiens, HPAF-II, Pancreas, growth inhibition (GI), single agent, 72 h, read-out: Max Response (% GI)",95%
same,Best CI,[1]; [7],0.52
same,Bliss Volume,[1]; [7],−2.61
same,HSA volume,[1]; [7],−0.36
same,Loewe Volume,[1]; [7],−0.96
same,Synergy Score,[1]; [7],0.98
same,Best CI Level,"[1]; enhancer combined with MEI-522 (Voruciclib), HPAF-II (Pancreas), 72 hours, inhibition data, unit assumed",70%
same,EC50,[2]; [8],8.6 nM
same,EC50,[2]; [9],8.5 nM
same,IC50,[2]; [8],13.1 nM
same,Emax,"[2]; Homo sapiens, KYSE-410, Esophageal, Additional Single Agent Responses, 72 h, read-out: Max Response (% I)",74%
same,GI50,[2]; [9],10.1 nM
same,Emax,"[2]; Homo sapiens, KYSE-410, Esophageal, growth inhibition (GI), single agent, 72 h, read-out: Max Response (% GI)",89%
same,Best CI,[2]; [10],1.85
same,Bliss Volume,[2]; [10],−3.04
same,HSA volume,[2]; [10],−2.10
same,Loewe Volume,[2]; [10],−3.58
same,Synergy Score,[2]; [10],0.91
same,Response Area,"[2]; KYSE-410, Esophageal, Additional Single Agent Responses (inhibition, % I), 72 h",3.52
same,Response Area,"[2]; KYSE-410, Esophageal, growth inhibition (GI), AUC, single agent, 72 h",4.24
same,Best CI,[2]; [11],0.40
same,Bliss Volume,[2]; [11],−3.11
same,HSA volume,[2]; [11],−1.71
same,Loewe Volume,[2]; [11],−2.95
same,Synergy Score,[2]; [11],0.62
same,Best CI Level,"[2]; enhancer combined with MEI-522 (Voruciclib), KYSE-410 (Esophageal), 72 hours, inhibition data, unit assumed",70%
same,EC50,[3]; [12],18.6 nM
same,EC50,[3]; [13],18.5 nM
same,IC50,[3]; [12],23.9 nM
same,Emax,"[3]; Homo sapiens, LS-513, Colorectal, Additional Single Agent Responses, 72 h, read-out: Max Response (% I)",74%
same,GI50,[3]; [13],20 nM
same,Emax,"[3]; Homo sapiens, LS-513, Colorectal, growth inhibition (GI), single agent, 72 h, read-out: Max Response (% GI)",91%
same,Best CI,[3]; [14],0.60
same,Bliss Volume,[3]; [14],3.16
same,HSA volume,[3]; [14],1.53
same,Loewe Volume,[3]; [14],1.21
same,Synergy Score,[3]; [14],5.33
same,Response Area,"[3]; LS-513, Colorectal, Additional Single Agent Responses (inhibition, % I), 72 h",3.44
same,Response Area,"[3]; LS-513, Colorectal, growth inhibition (GI), AUC, single agent, 72 h",4.22
same,Best CI,[3]; [15],0.62
same,Best CI Level,[3]; [15],80
same,Bliss Volume,[3]; [15],−1.28
same,HSA volume,[3]; [15],0.04
same,Loewe Volume,[3]; [15],0.06
same,Synergy Score,[3]; [15],1.44
same,EC50,[4]; [16],4.1 nM
same,EC50,[4]; [17],4.2 nM
same,IC50,[4]; [16],4.8 nM
same,Emax,"[4]; Homo sapiens, SW48 KRAS (G12D/+), Colorectal, Additional Single Agent Responses, 72 h, read-out: Max Response (% I)",86%
same,GI50,[4]; [17],4.3 nM
same,Emax,"[4]; Homo sapiens, SW48 KRAS (G12D/+), Colorectal, growth inhibition (GI), single agent, 72 h, read-out: Max Response (% GI)",148%
same,Response Area,"[4]; SW48 KRAS (G12D/+), Colorectal, Additional Single Agent Responses (inhibition, % I), 72 h",3.32
same,Response Area,"[4]; SW48 KRAS (G12D/+), Colorectal, growth inhibition (GI), AUC, single agent, 72 h",5.01
same,Best CI,[4]; [18],0.06
same,Bliss Volume,[4]; [18],8.36
same,HSA volume,[4]; [18],1.07
same,Loewe Volume,[4]; [18],3.66
same,Synergy Score,[4]; [18],13.34
same,Best CI,[4]; [19],0.08
same,Bliss Volume,[4]; [19],0.41
same,HSA volume,[4]; [19],0.61
same,Loewe Volume,[4]; [19],2.08
same,Synergy Score,[4]; [19],4.06
same,Best CI Level,"[4]; enhancer combined with MEI-522 (Voruciclib), SW48 KRAS (G12D/+) (Colorectal), 72 hours, inhibition data, unit assumed",80%
same,EC50,"[5]; Homo sapiens, TOV21G, 72 h, TOV-21G, Ovary, Additional Single Agent Responses (inhibition, % I)",10 nM
same,EC50,"[5]; Homo sapiens, TOV21G, 72 h, TOV-21G, Ovary, growth inhibition (GI) curve, single agent",13.8 nM
same,IC50,"[5]; Homo sapiens, TOV21G, TOV-21G, Ovary, Additional Single Agent Responses (inhibition, % I), 72 h",11.6 nM
same,Emax,"[5]; Homo sapiens, TOV21G, TOV-21G, Ovary, Additional Single Agent Responses, 72 h, read-out: Max Response (% I)",89%
same,GI50,"[5]; Homo sapiens, TOV21G, TOV-21G, Ovary, growth inhibition (GI) curve, single agent, 72 h",8.4 nM
same,Emax,"[5]; Homo sapiens, TOV21G, TOV-21G, Ovary, growth inhibition (GI), single agent, 72 h, read-out: Max Response (% GI)",163%
same,Best CI,[5]; [20],0.56
same,Bliss Volume,[5]; [20],2.45
same,HSA volume,[5]; [20],−4.18
same,Loewe Volume,[5]; [20],−6.03
same,Synergy Score,[5]; [20],1.71
same,Response Area,"[5]; TOV-21G, Ovary, Additional Single Agent Responses (inhibition, % I), 72 h",4.33
same,Response Area,"[5]; TOV-21G, Ovary, growth inhibition (GI), AUC, single agent, 72 h",7.56
same,Best CI,[5]; [21],0.76
same,Best CI Level,[5]; [21],20
same,Bliss Volume,[5]; [21],−1.60
same,HSA volume,[5]; [21],−1.29
same,Loewe Volume,[5]; [21],−1.80
same,Synergy Score,[5]; [21],0.60
